The nature of data set [1]: Drug uptake in human HepG2 cells with ASGPR overexpression assessed as fold increase in intracellular uptake. The format is ADME, cell-based.
The nature of data set [2]: Cytoprotective activity against Down syndrome patient-derived human Detroit 532 cells assessed as increase in mitochondrial membrane potential at 10 uM incubated for 3 days by JC-1 staining based fluorescence microscopy. The format is functional. As to conditions: time 3 day.
A further data set concerns Mus musculus. Kind of data set: Antidiabetic activity in high fat diet-induced obese db/db mouse assessed as reduction in total lipid concentration at 30 mg/kg,ip administered for 2 weeks. It counts as functional. More on the design: scale not given: the % may be the effect or the level left.

Regarding `CC(=O)N[C@@H]1[C@@H](O)[C@@H](O)[C@@H](CO)O[C@@H]1O`, the “fold change (FC)” value in data set [1] is 16. For `CC(=O)N[C@@H](CSc1nc2c(=O)[nH]c(N)nc2n1Cc1ccc(F)cc1)C(=O)NCCCOCCOCCOCCCCC(=O)C(=O)c1c(-c2ccccc2)[nH]c2ccccc12`, the Activity in data set [2] was found to be 50%.

`N[C@@H](COC1O[C@H](CCP(=O)(O)O)[C@@H](O)[C@H](O)[C@@H]1O)C(=O)O` (stereo not given in full): the “fold change (FC)” value in data set [1] was found to be 2. Take `O=C1C(=Cc2cc(Br)c(O)c(Br)c2)c2cc(I)ccc2N1CCCCCCCCCCCOc1ccc2ccccc2c1/N=N/c1ccc(/N=N/c2ccccc2)cc1`: in the data set on Mus musculus, the Activity is 62%. Regarding `O=c1cc(-c2ccccc2)c2c(OCCCCCCCCCCOc3ccc4ccccc4c3/N=N/c3ccc(/N=N/c4ccccc4)cc3)cc(O)cc2o1`, the Activity in the data set with Mus musculus is listed as 62%.

The values above are taken from ChEMBL document CHEMBL5104234, “Targeted protein degradation using the lysosomal pathway” (RSC Med Chem, 2022).
